According to patent US5077312A, “Biologically active lipids binding membrane receptors” (priority 1990, dated 1991):
Values joined by “and” are separate entries in the source; they are usually repeats but may differ in a detail not shown here. Equal entries are not always repeated.

How the values were obtained:
[1] = system: PDBu receptor (phorboid receptor) of murine brain membranous fraction (BMF); assay: PDBu binding inhibiting activity (PBIA): inhibition of 3H-PDBu binding to murine brain membranous fraction; design: species or system murine (mouse, NFS strain)
Description: Pooled murine brains from approximately 2 month old mice, NFS strain, were minced with scissors, suspended in 1 mM triethanolamine-HCl, pH 7.4, and disrupted with a polytron P-10 (Brinkman). This and all subsequent steps were performed at 4° C. The homogenate was centrifuged for 10 minutes at 1700 xg; the supernate was removed and centrifuged for 60 minutes at 105,000 xg. The resulting pellet was suspended in one-fourth of the initial volume of PBS. The suspension was aliquoted into a small volume and stored at -70° C.
The binding of ^3 H-PDBu to BMF or soluble receptors was performed in duplicate in 12×75 mm disposable glass tubes (Kimax) both in the absence and presence of 20 μg/ml unlabeled PDBu; the binding mixture contained 5 ng of ^3 H-PDBu (4×10^4 cpm), 0.2% final concentration of DMSO and BMF (50 μg protein) or soluble receptors in a total volume of 0.25 ml binding buffer (BB) consisting of Dulbecco's minimum essential medium (DMEM) containing bovine serum albumin (BSA 1 mg/ml) and N,N,-bis-(2-hydroxyethyl)-2-amino-ethane sulfonic acid (BES, 5 mM), adjusted to pH 6.8. After incubation for 30 minutes at 23° C. the tubes were chilled, 0.5 ml cold 4% calf serum (Colorado Serum Co., Denver, Colo.) and 0.7 ml cold polyethylene glycol (PEG 6,000) in 1 mM Tris-HCl, pH 7.4 was added to each tube, the contents vortexed, the tubes allowed to stand for 15 min at 4° C., and centrifuged for 10 in at 1500 xg at 4° C. The supernatant solution was carefully aspirated off, the pellet suspended in 2.5 ml of cold 10% PEG in 0.1M Tris-HCl, pH 7.4, containing 0.5% SDS and 1 mM EDTA). The mixture was transferred to counting vials and 10 ml of Aquassure (NEN) was added to each vial. The vials were vigorously shaken and radioactivity determined using a Beckman beta counter. The radioactivity bound in the presence of 20 μg/ml (50-200 cpm) unlabeled PDBu was considered to be nonspecific and all data were corrected accordingly.
The loss of the ability of ^3 H-PDBu to bind to receptors in the presence of ligand was used as the measure of inhibiting activity. PDBu binding inhibition assays were performed as described above, except the test materials were added to the reaction mixture and binding measured as described above.
The PBIA of ligand was equated with that of PDBu by the use of the term ng equivalent calculated from a plot of [^3 H]PDBu bound versus the log molar concentration for several biologically active phorbol esters (2). The curve corresponding to PDBu inhibition of PDBu binding was used by reading the molar concentration corresponding to the percent of control binding of [^3 H]PDBu in the presence of ligand to obtain the units ng PDBu equivalent of ligand.

[2] = system: arachidonic acid cascade; assay: Stimulation of arachidonic acid cascade: release of radioactivity from cells labeled with radioactive arachidonic acid; type: cell-based
Excerpt: (§1) The release of radioactivity into the medium from cells previously labeled with radioactive arachidonic acid was used as a measure of activation of eicosanoids pathway. […] PBIL from all sources inhibited PDBu-receptor interaction.

[3] = system: arachidonic acid cascade in mink lung cells; assay: Activation of arachidonic acid cascade in mink lung cells; type: cell-based
Excerpt: as §1

[4] = system: purified phorboid receptor (serine-protein kinase); assay: Protein kinase activity of purified phorboid receptor; type: biochemical, murine
Description: In the final volume of 0.25 ml, the reaction mixture in duplicate contained 5 μmol Tris-HCl (pH 7.4), 1 μmol MgCl2, 50 μg histone, 0.12 nmol [-^32 P] ATP (8×10^6 cpm at arrival) and an appropriate amount of purified receptor protein. The reaction was carried out for 15 min at 23° C. The phosphorylated proteins were precipitated with 5% cold TCA, using BSA (250 μg) as carrier. The mixture in the tubes was allowed to settle at 4° C. for 15-30 min. Precipitates were collected on cellulose nitrate filters (0.45 μm) and washed with 75 ml of cold 5% TCA. Filters were dried and counted in Betafluor scintillation fluid.
Purified phorboid receptor from murine brain was purified to homogeneity and shown that the purified receptor is a serine-protein kinase (Shoyab, Cell Proliferation (CSH Laboratory) (1984) 11:253-262). The effect of PBIL on this protein kinase was tested. […] At higher concentration the kinase activity was inhibited (Table 4).
The assay conditions were the same as described in the text except the indicated amount of PBIL and 25 ng of purified receptor protein (Shoyab, Cell Proliferation (CSH Laboratory) (1984) 11:253-262) were used.

[5] = concentration 0.8 (unit not given)
[6] = concentration 0.4 (unit not given)
[7] = concentration 0.2 (unit not given)

With `CCCCCCCC/C=C\CCCCCCCC(=O)OCC(CO)OC(=O)CCCCCCC/C=C\CCCCCCCC` (stereo not drawn) [1,2-Diolein, reference compound] the “Inhibition of binding of PDBu to its receptor” value (“Inhibition of binding of PDBu” below) [1, 5] was 20%.
For `CCCCC/C=C\C/C=C\CCCCCCCC(=O)OCC(O)COC(=O)CCCCCCC/C=C\C/C=C\CCCCC` [1,3-Dilinolein, reference compound], the “Inhibition of binding of PDBu” value [1, 5] was 15%.
In the case of `CCCCCCCCCCCCCC(=O)OCC(O)COC(=O)CCCCCCCCCCCCC` [1,3-Dimyristin, reference compound], the “Inhibition of binding of PDBu” value [1, 6] is reported as 1%.
`CCCCCCCC/C=C\CCCCCCCC(=O)OCC(O)COC(=O)CCCCCCC/C=C\CCCCCCCC` [1,3-Diolein, reference compound] was tested, and the “Inhibition of binding of PDBu” value [1, 5] was 11%.
With `CCCCCCCCCCCCCCCC(=O)OCC(O)COC(=O)CCCCCCCCCCCCCCC` [1,3-Dipalmitin, reference compound] the “Inhibition of binding of PDBu” value [1, 5] was -12%.
In the case of `CCCCC/C=C\C/C=C\C/C=C\C/C=C\CCCC(=O)OCC(O)CO` (stereo not drawn) [1-Monoarachidonin, 1-monoarachidonin], the “Stimulation of arachidonic acid cascade (release of radioactivity into the medium)” value (“Stimulation of arachidonic acid cascade” below) [2] is reported as “stimulate the arachidonic acid cascade”, the “Inhibition of / competition for PDBu binding to receptor (in words)” value (“Inhibition of / competition” for short) [1] is reported as “compete with phorbol dibutyrate for its receptor” and the “Inhibition of binding of PDBu” value [1, 7] is reported as 41%. The “Inhibition of binding of PDBu” value [1, 6] was 91% and the “Inhibition of binding of PDBu” value [1, 5] was 95%.
`CCCCC/C=C\C/C=C\CCCCCCCC(=O)OC[C@@H](O)CO` [1-Monolinolein, 1-monolinolein] was tested, and the “Activation of arachidonic acid cascade” value [3] was “activated the arachidonic acid cascade in mink lung cells in a dose- and time-dependent manner”, the “Stimulation of arachidonic acid cascade” value [2] was “stimulate the arachidonic acid cascade” and the “Inhibition of / competition” value [1] was “compete with phorbol dibutyrate for its receptor”. The “Inhibition of binding of PDBu” value [1, 7] was 39%, the “Inhibition of binding of PDBu” value [1, 6] was 82% and the “Inhibition of binding of PDBu” value [1, 5] was 94%.
In the case of `CC/C=C\C/C=C\C/C=C\CCCCCCCC(=O)OCC(O)CO` (stereo not drawn) [1-Monolinolenin, 1-monolinolenin], the “Inhibition of binding of PDBu” value [1, 7] is reported as 27%, the “Inhibition of binding of PDBu” value [1, 6] is reported as 74% and the “Inhibition of binding of PDBu” value [1, 5] is reported as 94%.
With `CCCCCCCCCCCCCC(=O)OCC(O)CO` (stereo not drawn) [1-Monomyristin, reference compound] the “Inhibition of binding of PDBu” value [1, 6] was 0%.
`CCCCCCCC/C=C\CCCCCCCC(=O)OCC(O)CO` (stereo not drawn) [1-Monoolein, 1-monoolein] was tested, and the “Inhibition of binding of PDBu” value [1, 6] was 21% and the “Inhibition of binding of PDBu” value [1, 5] was 63%.
In the case of `CCCCCCCCCCCCCCCC(=O)OCC(O)CO` (stereo not drawn) [1-Monopalmitin, 1-monopalmitin], the “Inhibition of binding of PDBu” value [1, 5] is reported as -6% and -15%.
For `CCCCCC/C=C\CCCCCCCC(=O)OCC(O)CO` (stereo not drawn) [1-Monopalmitolein, 1-monopalmitolein], the “Stimulation of arachidonic acid cascade” value [2] was “stimulate the arachidonic acid cascade”, the “Inhibition of / competition” value [1] was “compete with phorbol dibutyrate for its receptor” and the “Inhibition of binding of PDBu” value [1, 6] was 36%. The “Inhibition of binding of PDBu” value [1, 5] was 82%.
With `OCC(O)CO` [Glycerol, reference compound] the “Inhibition of binding of PDBu” value [1, 6] was 0%.
For `CCCCC/C=C\C/C=C\CCCCCCCC(=O)O` [Linoleic acid-Na, reference compound], the “Inhibition of binding of PDBu” value [1, 6] was 10% and the “Inhibition of binding of PDBu” value [1, 5] was 15%.
For `CCCCCCCCCCCCCC(=O)O[C@@H]1[C@@H](C)[C@@]2(O)[C@@H](C=C(CO)C[C@]3(O)C(=O)C(C)=C[C@@H]23)[C@@H]2C(C)(C)[C@]12OC(C)=O` [TPA, 12-0-tetradecanoylphorbol-13-acetate], the “Stimulation of protein kinase activity (in words)” value [4] was “stimulated the kinase activity”.
For `CCCCCCCCCCCC(=O)OCC(COC(=O)CCCCCCCCCCC)OC(=O)CCCCCCCCCCC` [Trilaurin, reference compound], the “Inhibition of binding of PDBu” value [1, 6] was 11%.
With `CCCCC/C=C\C/C=C\CCCCCCCC(=O)OCC(COC(=O)CCCCCCC/C=C\C/C=C\CCCCC)OC(=O)CCCCCCC/C=C\C/C=C\CCCCC` [Trilinolein, reference compound] the “Inhibition of binding of PDBu” value [1, 5] was -1%.
With `CCCCCCCCCCCCCC(=O)OCC(COC(=O)CCCCCCCCCCCCC)OC(=O)CCCCCCCCCCCCC` [Trimystrin, reference compound] the “Inhibition of binding of PDBu” value [1, 6] was 15%.
In the case of `CCCCCCCCCCCCCCCC(=O)OCC(COC(=O)CCCCCCCCCCCCCCC)OC(=O)CCCCCCCCCCCCCCC` [Tripalmitin, reference compound], the “Inhibition of binding of PDBu” value [1, 6] is reported as -11% and the “Inhibition of binding of PDBu” value [1, 5] is reported as -8%.
